Results: US20040161786A1, “Gene panel participative in hepatic stellate cell activation” (priority 2001, published 2004)

Tested on: hepatic fibrosis
Assay: Dimethylnitrosamine (DMN)-induced hepatic fibrosis, hydroxyproline (Hyp) in the liver
Format: in vivo
Conditions: SD male rat, DMN 10 mg/kg i.p. three times a week for four weeks, diet containing 0.5% L-cysteine vs 0.5% casein, 28th day
Method: Hepatic fibrosis was induced by intraperitoneally administering 10 mg/kg of dimethylnitrosamine (DMN) to a 6-week SD male rat three times a week for four weeks. Then, an experimental diet containing 0.5% of L-cysteine (Cys) as a subject and that containing 0.5% of casein as a control were fed from the initiation date of the DMN administration. On the 28th day from the initiation of the […] administration, the liver was sampled from the subject and the amount of hydroxyproline (Hyp) in the liver was measured as an index of hepatic fibrosis using an amino acid analyzer.

N[C@@H](CS)C(=O)O [cysteine, L-cysteine]
increase in Hyp in the liver (index of hepatic fibrosis): significantly suppressed
